# Measured values taken from the supplement of paper PMC10307832.
# Legend:
# Test in all cases: relative viability (nuclei count vs DMSO), 5 days (fraction); higher = more cells survive
# A-427 = test system: A-427
# Outline: (§1)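 Lung cancer cell lines were pin-tool dosed in 1536-well plates on the day after seeding, with either a lone drug or a fixed anchor-drug dose plus five library-drug doses (not always all listed) in √10 steps. Nuclei were counted on 4× images after 5 days. Relative viability is the ratio of treated-well to vehicle-well nuclei counts, with each value a median of duplicate plates.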
# ABC-1 = test system: ABC-1
# Outline: as §1
# COR-L23 = test system: COR-L23
# Outline: as §1
# ChaGo-K-1 = test system: ChaGo-K-1
# Outline: as §1
# EMC-BAC-2 = test system: EMC-BAC-2
# Outline: as §1
# HARA = test system: HARA
# Outline: as §1
# HCC-15 = test system: HCC-15
# Outline: as §1
# HCC-366 = test system: HCC-366
# Outline: as §1
# HCC-78 = test system: HCC-78
# Outline: as §1
# LC-2-ad = test system: LC-2-ad
# Outline: as §1
# NCI-H1734 = test system: NCI-H1734
# Outline: as §1
# NCI-H1793 = test system: NCI-H1793
# Outline: as §1
# NCI-H1944 = test system: NCI-H1944
# Outline: as §1
# NCI-H1993 = test system: NCI-H1993
# Outline: as §1
# NCI-H2009 = test system: NCI-H2009
# Outline: as §1
# NCI-H2023 = test system: NCI-H2023
# Outline: as §1
# NCI-H2126 = test system: NCI-H2126
# Outline: as §1
# NCI-H2228 = test system: NCI-H2228
# Outline: as §1
# NCI-H23 = test system: NCI-H23
# Outline: as §1
# NCI-H2405 = test system: NCI-H2405
# Outline: as §1
# NCI-H838 = test system: NCI-H838
# Outline: as §1
# SK-LU-1 = test system: SK-LU-1
# Outline: as §1
# UMC-11 = test system: UMC-11
# Outline: as §1
smiles,measurement,setting,value
O=C(O)c1ccc(-c2c[nH]c3ncc(-c4ccccc4)cc23)cc1C1CCCC1 + CC(=O)c1c(C)c2cnc(Nc3ccc(N4CCNCC4)cn3)nc2n(C2CCCC2)c1=O [Palbociclib] (partner 0.5 µM),relative viability,A-427; first compound 0.04 µM,0.536
same,relative viability,A-427; first compound 0.1265 µM,0.526
same,relative viability,A-427; first compound 0.4 µM,0.485
same,relative viability,A-427; first compound 1.265 µM,0.48
same,relative viability,ABC-1; first compound 0.04 µM,0.674
same,relative viability,ABC-1; first compound 0.1265 µM,0.892
same,relative viability,ABC-1; first compound 0.4 µM,0.551
same,relative viability,ABC-1; first compound 1.265 µM,0.742
same,relative viability,COR-L23; first compound 0.04 µM,0.296
same,relative viability,COR-L23; first compound 0.1265 µM,0.326
same,relative viability,COR-L23; first compound 0.4 µM,0.308
same,relative viability,COR-L23; first compound 1.265 µM,0.205
same,relative viability,ChaGo-K-1; first compound 0.04 µM,0.958
same,relative viability,ChaGo-K-1; first compound 0.1265 µM,0.966
same,relative viability,ChaGo-K-1; first compound 0.4 µM,0.945
same,relative viability,ChaGo-K-1; first compound 1.265 µM,0.834
same,relative viability,EMC-BAC-2; first compound 0.04 µM,0.534
same,relative viability,EMC-BAC-2; first compound 0.1265 µM,0.544
same,relative viability,EMC-BAC-2; first compound 0.4 µM,0.529
same,relative viability,EMC-BAC-2; first compound 1.265 µM,0.519
same,relative viability,HARA; first compound 0.04 µM,0.308
same,relative viability,HARA; first compound 0.1265 µM,0.267
same,relative viability,HARA; first compound 0.4 µM,0.248
same,relative viability,HARA; first compound 1.265 µM,0.216
same,relative viability,HCC-15; first compound 0.04 µM,0.793
same,relative viability,HCC-15; first compound 0.1265 µM,0.762
same,relative viability,HCC-15; first compound 0.4 µM,0.631
same,relative viability,HCC-15; first compound 1.265 µM,0.431
same,relative viability,HCC-366; first compound 0.04 µM,0.442
same,relative viability,HCC-366; first compound 0.1265 µM,0.43
same,relative viability,HCC-366; first compound 0.4 µM,0.416
same,relative viability,HCC-366; first compound 1.265 µM,0.346
same,relative viability,HCC-78; first compound 0.04 µM,0.494
same,relative viability,HCC-78; first compound 0.1265 µM,0.467
same,relative viability,HCC-78; first compound 0.4 µM,0.488
same,relative viability,HCC-78; first compound 1.265 µM,0.435
same,relative viability,LC-2-ad; first compound 0.04 µM,0.425
same,relative viability,LC-2-ad; first compound 0.1265 µM,0.541
same,relative viability,LC-2-ad; first compound 0.4 µM,0.489
same,relative viability,LC-2-ad; first compound 1.265 µM,0.42
same,relative viability,NCI-H1734; first compound 0.04 µM,0.324
same,relative viability,NCI-H1734; first compound 0.1265 µM,0.328
same,relative viability,NCI-H1734; first compound 0.4 µM,0.302
same,relative viability,NCI-H1734; first compound 1.265 µM,0.344
same,relative viability,NCI-H1793; first compound 0.04 µM,0.248
same,relative viability,NCI-H1793; first compound 0.1265 µM,0.338
same,relative viability,NCI-H1793; first compound 0.4 µM,0.302
same,relative viability,NCI-H1793; first compound 1.265 µM,0.31
same,relative viability,NCI-H1944; first compound 0.04 µM,0.349
same,relative viability,NCI-H1944; first compound 0.1265 µM,0.376
same,relative viability,NCI-H1944; first compound 0.4 µM,0.315
same,relative viability,NCI-H1944; first compound 1.265 µM,0.314
same,relative viability,NCI-H1993; first compound 0.04 µM,0.62
same,relative viability,NCI-H1993; first compound 0.1265 µM,0.601
same,relative viability,NCI-H1993; first compound 0.4 µM,0.596
same,relative viability,NCI-H1993; first compound 1.265 µM,0.537
same,relative viability,NCI-H2009; first compound 0.04 µM,0.152
same,relative viability,NCI-H2009; first compound 0.1265 µM,0.246
same,relative viability,NCI-H2009; first compound 0.4 µM,0.175
same,relative viability,NCI-H2009; first compound 1.265 µM,0.209
same,relative viability,NCI-H2023; first compound 0.04 µM,0.407
same,relative viability,NCI-H2023; first compound 0.1265 µM,0.394
same,relative viability,NCI-H2023; first compound 0.4 µM,0.358
same,relative viability,NCI-H2023; first compound 1.265 µM,0.312
same,relative viability,NCI-H2126; first compound 0.04 µM,0.361
same,relative viability,NCI-H2126; first compound 0.1265 µM,0.358
same,relative viability,NCI-H2126; first compound 0.4 µM,0.369
same,relative viability,NCI-H2126; first compound 1.265 µM,0.345
same,relative viability,NCI-H2228; first compound 0.04 µM,0.885
same,relative viability,NCI-H2228; first compound 0.1265 µM,0.736
same,relative viability,NCI-H2228; first compound 0.4 µM,0.886
same,relative viability,NCI-H2228; first compound 1.265 µM,0.5
same,relative viability,NCI-H23; first compound 0.04 µM,0.577
same,relative viability,NCI-H23; first compound 0.1265 µM,0.491
same,relative viability,NCI-H23; first compound 0.4 µM,0.483
same,relative viability,NCI-H23; first compound 1.265 µM,0.308
same,relative viability,NCI-H2405; first compound 0.04 µM,0.529
same,relative viability,NCI-H2405; first compound 0.1265 µM,0.557
same,relative viability,NCI-H2405; first compound 0.4 µM,0.517
same,relative viability,NCI-H2405; first compound 1.265 µM,0.473
same,relative viability,NCI-H838; first compound 0.04 µM,0.189
same,relative viability,NCI-H838; first compound 0.1265 µM,0.267
same,relative viability,NCI-H838; first compound 0.4 µM,0.214
same,relative viability,NCI-H838; first compound 1.265 µM,0.215
same,relative viability,SK-LU-1; first compound 0.04 µM,0.358
same,relative viability,SK-LU-1; first compound 0.1265 µM,0.381
same,relative viability,SK-LU-1; first compound 0.4 µM,0.366
same,relative viability,SK-LU-1; first compound 1.265 µM,0.359
same,relative viability,UMC-11; first compound 0.04 µM,0.286
same,relative viability,UMC-11; first compound 0.1265 µM,0.312
same,relative viability,UMC-11; first compound 0.4 µM,0.333
same,relative viability,UMC-11; first compound 1.265 µM,0.332
